According to patent publication US20240189490A1, “ANTIMICROBIAL ELUTING AIRWAY DEVICES” (priority 2021, published 2024):
No end group written: not given here.

How the values were obtained:
[1] = Release of loaded protein or peptide from coated ET tubes in PBS; format: physicochemical
Protocol: Release Quantification. Release of loaded protein or peptide from ET tubes was achieved from quartered tube segments in PBS at 37° C. while shaking at 100 rpm. FITC-BSA elution and PLGA degradation samples were obtained by completely removing the supernatant and adding fresh PBS to each well. […] PLGA degradation was quantified via EnzyFluo L-Lactate Assay Kit (Bioassay Systems). Peptide release was quantified via Pierce Quantitative Fluorometric Peptide Assay (Thermo Scientific).

[2] = system: Staphylococcus epidermidis; test: Crystal violet biofilm assay on ET tubes; format: cell-based; conditions: 24 hours, 1×MIC/PLGA vs uncoated, 0.5×MIC/PLGA, free peptide vs 1×MIC/PLGA p<0.0001
Protocol: (§1) Bacteria Culture. Staphylococcus epidermidis (Winslow and Winslow) Evans (ATCC 13990) was cultured in nutrient broth aerobically at 37° C. Streptococcus pneumoniae (Klein) Chester (NCTC 7465; ATCC 33400) was cultured in Brain Heart Infusion Broth and plated on Trypticase soy agar with 5% defibrinated sheep blood (Colorado Serum Co.) aerobically (5% CO2) at 37° C.
(§2) Antibacterial Activity Assay.

[3] = system: patient derived laryngotracheal fibroblasts
Protocol: Peptide/PLGA coated tubes and controls were first submerged in Fluorobrite DMEM supplemented with 10% FBS, 2% Anti-Anti, 1% MEM NEAA, and incubated for 24 hours at 37° ° C. while shaking at 100 rpm to achieve release. Simultaneously, laryngotracheal fibroblasts were seeded at 7,000 cells/well in 48 well plates and allowed to adhere overnight in a culture atmosphere at 37° C., 95% relative humidity, and 5% CO2. Cell media was replaced with appropriate tube releasate and incubated for 24 hours in the culture atmosphere. Invitrogen AlamarBlue HS Cell Viability Reagent (ThermoFisher Scientific) was used to quantify viability.

[4] = system: Staphylococcus epidermidis; test: Adherent bacterial viability on ET tubes (colony counts); format: cell-based; conditions: 24 hours, 1×MIC/PLGA vs uncoated, 0.5×MIC/PLGA p<0.0001, free peptide vs 1×MIC/PLGA p=0.0015
Protocol: as §1, §2

S. epidermidis = test: Minimum inhibitory concentration (MIC) of Lasio; format: cell-based, Staphylococcus epidermidis; design: unit not given here; conditions: data not shown
Protocol: as §1, §2

Question: With A4K14-citropin 1.1 as the substance, how does the linear release rate ([1]; mouse sized tube loaded with 17.04 μg peptide, over 9 days) read?
Answer: The linear release rate was 0.397 µg/day.

Question: And the encapsulated peptide released ([1]; mouse sized tube, by day 9)?
Answer: Its encapsulated peptide released is roughly 80%.

Question: For “VNWKKILGKIIKVVK-NH2 (C-terminus assumed) [Lasio, Lasioglossin-III]”, which “adherent bacterial populations (crystal violet biofilm assay)” value [2] is on record?
Answer: Its value is “significant reduction in adherent bacteria”.

Question: What about the “cytotoxicity toward human patient-derived laryngotracheal fibroblasts” value [3] of the same substance?
Answer: Its value is “not cytotoxic”.

Question: And the viability?
Answer: The viability was 62.3%.

Question: And the linear release ([1]; from PLGA coated ET tubes, PBS at 37° C. shaking at 100 rpm, after initial burst release)?
Answer: The linear release was 0.28 µg/day.

Question: What about the “viability of adherent bacteria” value [4] of the same substance?
Answer: Its value is “inhibited the viability of adherent bacteria”.

Question: And the minimum inhibitory concentration (S. epidermidis)?
Answer: Its minimum inhibitory concentration is 1.25.
